Laboratory results from US10538532B2, “Hepatitis B antiviral agents” (ENANTA PHARMACEUTICALS, INC., priority 2016, dated 2020).
Where two headings read alike, the source gives them in different places.

Test system: HBV
Test: HepAD38 antiviral assay: reduction of viral product accumulation (virion DNA by qPCR, HBsAg or HBeAg by ELISA)
Format: cell-based, hepatitis B virus
Conditions: HepAD38 cells, five days after compound addition, concentration reducing viral product accumulation by 50% relative to no drug controls, read-out: HepAD38 EC50
How it was run: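 EC50 values represent 50% reduction of viral product accumulation in lysates or supernatants relative to untreated controls, with virion DNA read by qPCR and HBsAg/HBeAg by ELISA. Measurements followed 5 days of treatment, or 8 days with compound renewed on d2 and d5. Cells were tetracycline-depleted HepAD38 at 35,000/well, dosed with a 1:200 dilution of DMSO stocks.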

[1] = Hepatitis B virus, HePAD38, 120 h

## O=C(Nc1cc(F)c(F)c(F)c1)c1ccc(Cl)c(S(=O)(=O)[C@H]2C3CC[C@H]2C[C@](O)(/C=N/OCc2ccccc2)C3)c1 [Example 205]
[1]
  EC50: < 100 nM

## O=C(Nc1cc(F)c(F)c(F)c1)c1ccc(Cl)c(S(=O)(=O)C2CC3CCC(C2)C3=O)c1 (stereo not drawn) [Example 206]
  EC50: > 400 nM

## C=C1C2CCC1CC(S(=O)(=O)c1cc(C(=O)Nc3cc(F)c(F)c(F)c3)ccc1Cl)C2 (stereo not drawn) [Example 207]
[1]
  EC50: > 400 nM

## O=C(Nc1cc(F)c(F)c(F)c1)c1ccc(Cl)c(S(=O)(=O)[C@H]2CC3CCC(C2)[C@]3(O)CO)c1 [Example 208]
  EC50: > 400 nM

## N#CC1CON(Cc2ccccc2)C1[C@]1(O)CC2CC[C@@H](C1)[C@H]2S(=O)(=O)c1cc(C(=O)Nc2cc(F)c(F)c(F)c2)ccc1Cl (stereo partly drawn) [Example 209]
[1]
  EC50: > 400 nM

## N#CC1CON(Cc2ccccc2)C1C1=C[C@@H]2CCC(C1)[C@@H]2S(=O)(=O)c1cc(C(=O)Nc2cc(F)c(F)c(F)c2)ccc1Cl (stereo partly drawn) [Example 210]
[1]
  EC50: > 400 nM

## COC(=O)C1CON(Cc2ccccc2)[C@@]12CC1CC[C@@H](C2)[C@H]1S(=O)(=O)c1cc(C(=O)Nc2cc(F)c(F)c(F)c2)ccc1Cl (stereo partly drawn) [Example 211]
[1]
  EC50: > 400 nM

## COC(=O)C1OCN(Cc2ccccc2)[C@]12CC1CC[C@@H](C2)[C@H]1S(=O)(=O)c1cc(C(=O)Nc2cc(F)c(F)c(F)c2)ccc1Cl (stereo partly drawn) [Example 212]
[1]
  EC50: > 400 nM

## COC(=O)C1CON(Cc2ccccc2)C1[C@]1(O)CC2CC[C@@H](C1)[C@H]2S(=O)(=O)c1cc(C(=O)Nc2cc(F)c(F)c(F)c2)ccc1Cl (stereo partly drawn) [Example 213]
[1]
  EC50: > 400 nM

## COC(=O)C1CON(Cc2ccccc2)C1C1=C[C@@H]2CCC(C1)[C@@H]2S(=O)(=O)c1cc(C(=O)Nc2cc(F)c(F)c(F)c2)ccc1Cl (stereo partly drawn) [Example 214]
[1]
  EC50: 100 to 400 nM

## COC(=O)C1=CON(Cc2ccccc2)C1[C@]1(O)CC2CC[C@@H](C1)[C@H]2S(=O)(=O)c1cc(C(=O)Nc2cc(F)c(F)c(F)c2)ccc1Cl (stereo partly drawn) [Example 215]
[1]
  EC50: > 400 nM

## COC(=O)C1=CON(Cc2ccccc2)C1[C@]1(O)CC2CC[C@@H](C1)[C@H]2S(=O)(=O)c1cc(C(=O)Nc2cc(F)c(F)c(F)c2)ccc1Cl (stereo partly drawn) [Example 216]
  EC50: > 400 nM

## COC(=O)C1CON(C)[C@@]12CC1CC[C@@H](C2)[C@H]1S(=O)(=O)c1cc(C(=O)Nc2cc(F)c(F)c(F)c2)ccc1Cl (stereo partly drawn) [Example 217]
[1]
  EC50: > 400 nM

## COC(=O)C1CON(C)[C@]12CC1CC[C@@H](C2)[C@H]1S(=O)(=O)c1cc(C(=O)Nc2cc(F)c(F)c(F)c2)ccc1Cl (stereo partly drawn) [Example 218]
[1]
  EC50: > 400 nM

## CCOC(=O)/C=C1/CC2CC[C@@H](C1)[C@H]2S(=O)(=O)c1cc(C(=O)Nc2cc(F)c(F)c(F)c2)ccc1Cl [Example 221]
[1]
  EC50: 100 to 400 nM

## CCOC(=O)/C=C/[C@]1(O)CC2CC[C@@H](C1)[C@H]2S(=O)(=O)c1cc(C(=O)Nc2cc(F)c(F)c(F)c2)ccc1Cl [Example 222]
[1]
  EC50: > 400 nM

## O=C(Nc1cc(F)c(F)c(F)c1)c1ccc(Cl)c(S(=O)(=O)[C@H]2CC3CCC(C2)[C@@]3(O)CO)c1 [Example 223]
[1]
  EC50: < 100 nM

## O=C(Nc1cc(F)c(F)c(F)c1)c1ccc(Cl)c(S(=O)(=O)[C@H]2C3CC[C@H]2C[C@](O)(/C=N/OCc2ccc(-c4ccccc4)cc2)C3)c1 [Example 224]
[1]
  EC50: 100 to 400 nM

## O=C(O)/C=C/[C@]1(O)CC2CC[C@@H](C1)[C@H]2S(=O)(=O)c1cc(C(=O)Nc2cc(F)c(F)c(F)c2)ccc1Cl [Example 225]
[1]
  EC50: > 400 nM

## O=C(Nc1cc(F)c(F)c(F)c1)c1ccc(Cl)c(S(=O)(=O)[C@H]2C3CC[C@H]2C[C@H](/C=N/O)C3)c1 [Example 229]
[1]
  EC50: < 100 nM

## Cc1ccc(CO/N=C/[C@]2(O)CC3CC[C@@H](C2)[C@H]3S(=O)(=O)c2cc(C(=O)Nc3cc(F)c(F)c(F)c3)ccc2Cl)cc1 [Example 230]
[1]
  EC50: 100 to 400 nM

## O=C(Nc1cc(F)c(F)c(F)c1)c1ccc(Cl)c(S(=O)(=O)[C@H]2C3CC[C@H]2C[C@](O)(/C=N/OCc2ccc(C(F)(F)F)cc2)C3)c1 [Example 231]
[1]
  EC50: 100 to 400 nM

## O=C(Nc1cc(F)c(F)c(F)c1)c1ccc(Cl)c(S(=O)(=O)[C@H]2C3CC[C@H]2C[C@](O)(/C=N/OCc2ccc(F)cc2)C3)c1 [Example 232]
[1]
  EC50: < 100 nM

## COc1ccc(CO/N=C/[C@]2(O)CC3CC[C@@H](C2)[C@H]3S(=O)(=O)c2cc(C(=O)Nc3cc(F)c(F)c(F)c3)ccc2Cl)cc1 [Example 233]
[1]
  EC50: < 100 nM

## O=C(Nc1cc(F)c(F)c(F)c1)c1ccc(Cl)c(S(=O)(=O)[C@H]2C3CC[C@H]2C[C@](O)(/C=N/OCc2ccc([N+](=O)[O-])cc2)C3)c1 [Example 234]
[1]
  EC50: 100 to 400 nM

## O=C(Nc1cc(F)c(F)c(F)c1)c1ccc(Cl)c(S(=O)(=O)[C@H]2C3CC[C@H]2C[C@](O)(/C=N/OCc2c(F)c(F)c(F)c(F)c2F)C3)c1 [Example 235]
[1]
  EC50: 100 to 400 nM

## O=C(Nc1cc(F)c(F)c(F)c1)c1ccc(Cl)c(S(=O)(=O)[C@H]2C3CC[C@H]2C[C@](O)(/C=N/OCc2cccc(F)c2)C3)c1 [Example 236]
[1]
  EC50: 100 to 400 nM

## COc1cccc(CO/N=C/[C@]2(O)CC3CC[C@@H](C2)[C@H]3S(=O)(=O)c2cc(C(=O)Nc3cc(F)c(F)c(F)c3)ccc2Cl)c1 [Example 237]
[1]
  EC50: 100 to 400 nM

## COc1ccccc1CO/N=C/[C@]1(O)CC2CC[C@@H](C1)[C@H]2S(=O)(=O)c1cc(C(=O)Nc2cc(F)c(F)c(F)c2)ccc1Cl [Example 238]
[1]
  EC50: 100 to 400 nM

## O=C(Nc1cc(F)c(F)c(F)c1)c1ccc(Cl)c(S(=O)(=O)[C@H]2C3CC[C@H]2C[C@H](c2cc(-c4ccccc4)on2)C3)c1 [Example 239]
[1]
  EC50: < 100 nM

## O=C(Nc1cc(F)c(F)c(F)c1)c1ccc(Cl)c(S(=O)(=O)C[C@H]2CC3CC2[C@H](O)[C@@H]3O)c1 (stereo partly drawn) [Example 241]
[1]
  EC50: < 100 nM

## O=C(Nc1cc(F)c(F)c(F)c1)c1ccc(Cl)c(S(=O)(=O)C[C@@H]2CC3CC2[C@H](O)[C@@H]3O)c1 (stereo partly drawn) [Example 242]
[1]
  EC50: 100 to 400 nM

## O=C(Nc1cc(F)c(F)c(F)c1)c1ccc(Cl)c(S(=O)(=O)CC2CC3CCC2C(O)C3O)c1 (stereo not drawn) [Example 243]
[1]
  EC50: < 100 nM

## O=C(Nc1cc(F)c(F)c(F)c1)c1ccc(Cl)c(S(=O)(=O)[C@H]2C3CC[C@H]2C[C@](O)(/C=N/OCc2ccccc2F)C3)c1 [Example 244]
[1]
  EC50: < 100 nM

## O=C(Nc1cc(F)c(F)c(F)c1)c1ccc(Cl)c(S(=O)(=O)C2CC3CCC(C2)C3=O)c1 (stereo not drawn) [Example 245]
  EC50: 100 to 400 nM

## C[C@@]1(O)CC2CC[C@@H](C1)[C@H]2S(=O)(=O)c1cc(C(=O)Nc2cc(F)c(F)c(F)c2)ccc1Cl [Example 247]
[1]
  EC50: < 100 nM

## C[C@H](N)C(=O)OC[C@]1(O)CC2CC[C@@H](C1)[C@H]2S(=O)(=O)c1cc(C(=O)Nc2cc(F)c(F)c(F)c2)ccc1Cl [Example 248]
[1]
  EC50: < 100 nM

## O=C(Nc1cc(F)c(F)c(F)c1)c1ccc(Cl)c(S(=O)(=O)[C@H]2CC3CCC(C2)[C@H]3CO)c1 [Example 249]
[1]
  EC50: 100 to 400 nM

## O=C(Nc1cc(F)c(F)c(F)c1)c1ccc(Cl)c(S(=O)(=O)[C@H]2CC3CCC(C2)[C@@H]3CO)c1 [Example 250]
[1]
  EC50: > 400 nM

## C[C@]1(O)C2CCC1C[C@H](S(=O)(=O)c1cc(C(=O)Nc3cc(F)c(F)c(F)c3)ccc1Cl)C2 [Example 251]
  EC50: > 400 nM

## CC(C)[C@H](N)C(=O)OC[C@]1(O)CC2CC[C@@H](C1)[C@H]2S(=O)(=O)c1cc(C(=O)Nc2cc(F)c(F)c(F)c2)ccc1Cl [Example 254]
[1]
  EC50: < 100 nM

## CC(C)(C)OC(=O)N1C2CCC1CC(S(=O)(=O)c1cc(C(=O)Nc3cc(F)c(F)c(F)c3)ccc1Cl)C2 (stereo not drawn) [Example 255]
[1]
  EC50: > 400 nM
